Reference: patent US20140127144A1, “Flavour Modifying Compounds” (Givaudan S. A., priority 2011, published 2014)

Experiments:
[1] = Expert panel tasting, application on Bechamel sauce with cheese; format: in vivo, people; settings: for taste description of mixture B compared to mixture A, effect assigned to the compound: 150-300 ppm N-acetyl-DL-glutamic acid plus 50-200 ppm N-formyl-glycine together in Bechamel sauce with cheese, panel of 5
Experimental: Mixture A: A Bechamel sauce with cheese was prepared by heating up 25 g of wheat flour in 35 g of butter in a saucepan. Let the flour cook shortly. Add 500 g milk, 2.5 g table salt, 0.15 g MSG, 0.075 g nutmeg powder, 0.125 g black pepper and 40 g of cheese powder. Boil the mixture for one minute. Mixture B: The same as mixture A plus 150-300 ppm N-acetyl-DL-glutamic acid plus 50-200 ppm N-formyl-glycine.

[2] = Expert panel tasting in aqueous solution of 0.5% NaCl; format: in vivo, people; settings: panel of 5
From the text: Mixture A: An aqueous solution of 0.5% NaCl Mixture B: The same as A plus 10 ppm N-formyl-DL-phenylalanine Mixture A: An aqueous solution of 0.5% NaCl Mixture B: The same as A plus 50 ppm of N-acetyl-L-isoleucine Mixture A: An aqueous solution of 0.5% NaCl Mixture B: The same as A plus 10 ppm N-acetyl-DL-valine

[3] = Expert panel tasting in aqueous solution of 0.5% NaCl and 0.03% MSG; format: in vivo, people; settings: panel of 5
From the text: Mixture C: An aqueous solution of 0.5% NaCl and 0.03% MSG.
Mixture D: The same as C plus 10 ppm N-formyl-DL-phenylalanine.
Mixture C: An aquesous solution of 0.5% NaCL and 0.03% MSG
Mixture D: The same as C plus 50 ppm of N-acetyl-L-isoleucine
Mixture A: An aqueous solution of 0.5% NaCl and 0.03% of MSG.
Mixture B: The same as A plus 25 ppm N-formyl-L-lysine
Mixture C: An aqueous solution of 0.5% NaCl and 0.03% MSG (Mono sodium glutamate)
Mixture D: The same as C plus 75 ppm of N-acetlyl DL-valine

[4] = Expert panel tasting, application on soy sauce; format: in vivo, people; settings: for taste description of mixture B compared to mixture A, effect assigned to the compound: 150-300 ppm N-acetyl-DL-glutamic acid plus 50-200 ppm N-formyl-glycine together in 5% soy sauce, panel of 5
From the text: Mixture A: 5% of a standard soy sauce in water, Mixture B: Same as mixture A plus 150-300 ppm N-acetyl-DL-glutamic acid plus 50-200 ppm N-formyl-glycine. […] This effect could be assigned to N-acetyl glutamic acid.

[5] = Panel of experienced tasters, cream cheese; format: in vivo, people; settings: 150 ppm in cream cheese; panel of 8
From the text: 150 ppm of N-acetyl glutamic acid was thoroughly mixed into Philadelphia brand cream cheese. This product was tasted and compared with the original cream cheese by a panel of experienced tasters consisting of 8 people (5 men, 3 women aged 35-54).

[6] = Panel of experienced tasters, salad dressing; format: in vivo, people; settings: 100 ppm in salad dressing; panel of 8
Experimental: 100 ppm of N-acetyl glutamic acid was dissolved in a common salad dressing (Remia met magere yoghurt). This product was tasted and compared with the original salad dressing by a panel of experienced tasters consisting of 8 people (5 men, 3 women aged 35-54).

[7] = Panel of experienced tasters, cooking oil; format: in vivo, people; settings: 200 ppm in cooking oil; panel of 8
Experimental: 200 ppm of N-acetyl glutamic acid was dissolved in a common cooking oil (Becel kitchen). This product was tasted and compared with the original cooking oil by a panel of experienced tasters consisting of 8 people (5 men, 3 women aged 35-54).

[8] = Panel of experienced tasters, hamburgers; format: in vivo, people; settings: 150 ppm in hamburgers, baked; panel of 8
Experimental: Hamburgers were prepared from 80% lean beef and 20% fat beef meat containing 0.5% salt, 0.15% black pepper and 0.15% onion powder and 150 ppm of N-acetyl glutamic acid. The hamburgers were baked without additional fat and compared with the same batch of meat to which no N-acetyl glutamic acid was added. This product was tasted and compared with the original hamburgers by a panel of experienced tasters consisting of 8 people (5 men, 3 women aged 35-54).

[9] = Panel of experienced tasters, instant mashed potato; format: in vivo, people; settings: 150 ppm in mashed potato; panel of 8
Experimental: A standard instant mashed potato powder (Albert Heijn huismerk) was prepared and mixed with 150 ppm of N-acetyl glutamic acid. This product was tasted and compared with the original mashed potatoes by a panel of experienced tasters consisting of 8 people (5 men, 3 women aged 35-54).

[10] = Panel of experienced tasters, potato chips with cheese sour cream flavour; format: in vivo, people; settings: amount not given, panel of 8
Experimental: Potato chips were prepared in house. A cheese sour cream flavour was prepared by mixing salt (1.5 weight % on the chips), MSG (0.05), whey powder (2.5), cheese powder (1.5), cream powder (0.2), buttermilk powder (0.4) and onion powder (0.2) The powder was applied on plain potato chips. This product was tasted and compared with the chips without N—Ac—Glu by a panel of experienced tasters consisting of 8 people (5 men, 3 women aged 35-54).

[11] = Panel of experienced tasters, tomato soup; format: in vivo, people; settings: 100 ppm in tomato soup; panel of 8
Experimental: To a standard tomato soup (Albert Heijn huismerk) was added 100 ppm of N-acetyl glutamic acid. This product was tasted and compared with the original tomato soup by a panel of experienced tasters consisting of 8 people (5 men, 3 women aged 35-54).

[12] = Panel of experienced tasters, cola; format: in vivo, people; settings: 100 ppm in cola; panel of 8
Experimental: To a standard cola (Pepsi or Coke cola) was added 100 ppm of N-acetyl glutamic acid. This product was tasted and compared with the original colas by a panel of experienced tasters consisting of 8 people (5 men, 3 women aged 35-54).

[13] = Panel of experienced tasters, soy milk; format: in vivo, people; settings: 100 ppm in soy milk; panel of 8
Experimental: To a standard soy milk (Alpro) was added 100 ppm of N-acetyl glutamic acid. This product was tasted and compared with the original soy milk by a panel of experienced tasters consisting of 8 people (5 men, 3 women aged 35-54).

[14] = Panel of experienced tasters, coffee beverage; format: in vivo, people; settings: 150 ppm in coffee beverage; panel of 8
Experimental: To a coffee beverage (Starbuck's frappucino) was added 150 ppm of N-acetyl glutamic acid. This product was tasted and compared with the original coffee beverage by a panel of experienced tasters consisting of 8 people (5 men, 3 women aged 35-54).

[15] = Panel of experienced tasters, vanilla yoghurt; format: in vivo, people; settings: 100 ppm in vanilla yoghurt; panel of 8
Experimental: To a standard vanilla yoghurt (Campina) was added 100 ppm of N-acetyl glutamic acid. This product was tasted and compared with the original vanilla yoghurt by a panel of experienced tasters consisting of 8 people (5 men, 3 women aged 35-54).

[16] = Expert panel tasting in chicken broth; format: in vivo, people; settings: 100 ppm in chicken broth; panel of 5
From the text: Mixture A: A chicken broth Mixture B: The same as A plus 100 ppm of N-acetyl-L-tyrosine

[17] = Expert panel tasting in salt reduced soy sauce; format: in vivo; settings: 0.04 ppm in salt reduced soy sauce
From the text: Mixture A: salt reduced Kikkoman soy sauce containing 9% salt Mixture B: same as Mixture A plus 0.04 ppm N-acetyl-methionine

[18] = Expert tasters, beef bouillon tasted warm; format: in vivo; settings: 40 ppb in beef bouillon
From the text: Mixture C: commercially available beef bouillon Mixture D: same as Mixture C plus 40 ppb N-acetyl-methionine The soups were tasted warm by a group of expert tasters.

[19] = Expert panel tasting in aqueous solution of 0.5% NaCl, 0.03% MSG and 0.002% ribonucleotides; format: in vivo; settings: 50 ppm in 0.5% NaCl, panel of 5
From the text: Mixture A: An aqueous solution of 0.5% NaCl, 0.03% MSG and 0.002%
Ribonucleotides GMP:IMP, ratio 1:1)
Mixture B: The same as A plus50 ppm of N-hexanoyl-L-leucine
Mixture A: An aqueous solution of 0.5% NACl, 0.03% MSG and 0.002%
Ribonucleotides (1:1 GMP, IMP)
Mixture B: The same as A plus 50 ppm of N-pentanoyl-L-phenylalanine

## CC(=O)NC(CCC(=O)O)C(=O)O (racemic) [N-acetyl-DL-glutamic acid]
[1]; only 150-300 ppm N-acetyl-DL-glutamic acid on top of mixture A
  taste description compared to mixture A: more fullness, depth and aftertaste of cheese

## CC(=O)NC(C(=O)O)C(C)C (racemic) [N-acetyl-DL-valine]
[2]; 10 ppm in 0.5% NaCl
  taste description of mixture B compared to mixture A: more initially salty
[3]; 75 ppm in 0.5% NaCl and 0.03% MSG
  taste description of mixture D compared to mixture C: more lingering umami and salivating

## O=CNC(Cc1ccccc1)C(=O)O (racemic) [N-formyl-DL-phenylalanine]
[2]; 10 ppm in 0.5% NaCl
  taste description of mixture B compared to mixture A: more salty
[3]; 10 ppm in 0.5% NaCl and 0.03% MSG
  taste description of mixture D compared to mixture C: more umami

## CC(=O)N[C@@H](CCC(=O)O)C(=O)O [N-acetyl glutamic acid]
[4]
  taste description of mixture B compared to mixture A, effect assigned to the compound: more umami and more lingering savoury
[1]
  taste description of mixture B compared to mixture A, effect assigned to the compound: more lingering, and giving fullness, depth and aftertaste of dairy cheese products
[5]
  taste description compared with the original product: saltier, creamier, more umami, more body, lingering and mouth-coating
[6]
  taste description compared with the original product: more balanced, less sour, fuller, salivating and more lingering
[7]
  taste description compared with the original product: more fatty, more creamy, more mouthcoating and gave a better buttery aftertaste
[8]
  taste description compared with the original product: more meaty, more succulent, more juicy, more fatty and more expanding in the mouth
[9]
  taste description compared with the original product: more salty, more creamy and more full
[10]
  taste description compared with the chips without N-Ac-Glu: more salty, more creamy, gave more mouthwatering and had increased cheese intensity
[11]
  taste description compared with the original product: less sour, had more body, was more salivating and had a stronger cooked taste
[12]
  taste description compared with the original product: slightly less acidic, more syrupy and more smooth
[13]
  taste description compared with the original product: slightly more sweet and masked some of the soy off-notes
[14]
  taste description compared with the original product: slightly more bitter, had reduced metallic retort notes and had increased carmellic notes
[15]
  taste description compared with the original product: less sour, more intense vanilla, more creamy, lingering and had more body

## CC(=O)N[C@@H](CCC(=O)O)C(=O)O [N-acetyl-L-glutamic acid]
[4]; only 50 -300 ppm N-acetyl-L-glutamic acid on top of mixture A
  taste description compared to mixture A: more umami and more lingering savoury

## CC[C@H](C)[C@H](NC(C)=O)C(=O)O [N-acetyl-L-isoleucine]
[2]; 50 ppm in 0.5% NaCl
  taste description of mixture B compared to mixture A: more salty
[3]; 50 ppm in 0.5% NaCl and 0.03% MSG
  taste description of mixture D compared to mixture C: more umami

## CC(=O)N[C@@H](Cc1ccc(O)cc1)C(=O)O [N-acetyl-L-tyrosine]
[16]
  taste description of mixture B compared to mixture A: more salty, lingering umami and shows delayed numbing

## CSCCC(NC(C)=O)C(=O)O (stereo not shown) [N-acetyl-methionine, N-acetyl-methionine (2-acetamido-4-(methylthio)butanoic acid)]
[17]
  taste description of mixture B compared to mixture A: more salty and has more upfront salty taste
[18]
  taste description of mixture D compared to mixture C: more salty, longer lasting and lifts the garlic component

## O=CNCC(=O)O [N-formyl glycine]
[4]
  taste description of mixture B compared to mixture A, effect assigned to the compound: stronger initial salt spike, was more long-lasting, complex and more succulent
[4]; only 50-200 ppm N-formyl-glycine on top of mixture A
  taste description compared to pure mixture A: more salty, more complex, long lasting and succulent
[1]
  taste description of mixture B compared to mixture A, effect assigned to the compound: stronger initial bite, is more salty and more complex
[1]; only 50-200 ppm N-formyl glycine on top of mixture A
  taste description compared to pure mixture A: more bite, more complex note and saltiness

## NCCCCC(NC=O)C(=O)O [N-formyl-L-lysine, alpha-N-formyl-L-lysine]
[3]; 25 ppm in 0.5% NaCl and 0.03% MSG
  taste description of mixture B compared to mixture A: more umami

## CCCCCC(=O)N[C@@H](CC(C)C)C(=O)O [N-hexanoyl-L-leucine]
[19]
  taste description of mixture B compared to mixture A: more salty and umami

## CCCCC(=O)N[C@@H](Cc1ccccc1)C(=O)O [N-pentanoyl-L-phenylalanine]
[19]
  taste description of mixture B compared to mixture A: more salty and umami
